Results on 6 molecules are retold here after article PMC8272044, “5-Phenoxy Primaquine Analogs and the Tetraoxane Hybrid as Antimalarial Agents” (Molecules, 2021).

Where two headings read alike, the source gives them in different places.

One series concerns P. falciparum 3D7. Kind of series: In vitro blood antimalarial activity, malaria SYBR green I-based fluorescence (MSF) method. The settings on record: Plasmodium falciparum; P. falciparum 3D7, blood stage, 48 h, mean ± SD of three biological repeats. Format: cell-based. The method, then:
P. falciparum strain 3D7 (wild-type drug sensitive strain) was used in this study. This parasite was maintained continuously in vitro in human O+ erythrocytes (4% hematocrit) at 37 °C under 3% CO2 and 90% N2 in RPMI 1640 culture media (Life Technologies Limited, Paisley, UK) containing 2 mM L-Glutamine, 25 mM HEPES (Sigma), pH 7.4, 2g/L NaHCO3, 40 mg/L gentamicin, 0.37 mM hypoxanthine, and supplemented with 5 g/L Albumax I (Life Technologies, Grand Island, NY, USA). Every 3 to 4 days, the parasite culture was synchronized with 5% sorbitol and transferred into complete medium with uninfected erythrocytes. In vitro antimalarial activity was determined by using the malaria SYBR green I-based fluorescence (MSF) method. Briefly, 0.09 mL of cultured 1% ring-stage synchronized parasites and 2% hematocrit were transferred to individual wells of a standard 96-well microtiter plate and in vitro culture continued for 48 h, with 0.01 mL of compound at different concentration in each well. The compounds were first dissolved in DMSO and diluted with RPMI medium to 1% DMSO. The final concentration of DMSO in each well was 0.1%, which caused no effect on the parasite viability. Following 48 h, SYBR Green I solution (0.02 µL of 10,000X SYBR Green I/100 µL of buffer solution consisted of 20 mM Tris 20, pH 7.5, 5 mM EDTA, 0.008% w/v saponin and 0.08% v/v Triton X-100) was then added to each well, and fluorescence signals were measured by spectrofluorometer at ex485/em 535 nm. […] The result of each compound was normalized with control media for the overall background subtraction as 0% and untreated parasite with 0.1% DMSO as 100% control.

Series [1] in a line: Cytotoxicity by sulforhodamine B (SRB) colorimetric assay. Format: cell-based, African green monkey. The settings on record: African green monkey, Vero cells, 72 h, SRB, mean ± SD of three repeats. The text has this:
(§1) A cytotoxicity test of selected analogs against African green monkey kidney fibroblast (Vero cells) was obtained from Bioassay Laboratory, BIOTEC, NSTDA, Thailand. They were maintained continuously in MEM/EBSS medium (Hyclone Laboratories Inc., South Logan, UT, USA), supplemented with 10% heated fetal bovine serum (GE Healthcare, PAA Laboratories GmbH, Pasching, Austria), 2.2 g/L Sodium bicarbonate (Emsure, Merck kGaA, Darmstadt, Germany), and 1% sodium pyruvate (Sigma). […] Then, the cells were fixed with 100 µL of 10% trichloroacetic acid (Sigma) at 4 °C for 45 min, washed, and dried at room temperature overnight. […] Finally, 200 µL of 10× Tris-base was added to each well to dissolve protein-bound dye. The OD was determined at a wavelength of 510 nm. The control media was used for overall background subtraction as 0% and untreated cells as 100% control without any cytotoxic effect. The IC50 value of each compound was determined from the dose–response curve.
A general note: The SRB assay estimates cell density from bound dye.

Series [2] concerns African green monkey kidney fibroblast (Vero cells). Described as above. Format: cell-based. The settings on record: Vero CC50 / P. falciparum 3D7 IC50.
Excerpt: as §1

A further series has as its system hematin polymerization. Kind of series: Inhibition of hematin polymerization (heme polymerization assay).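 As to %Inh1: test concentrations in µM.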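 As to %Inh2: test concentrations in µM.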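 As to %Inh3: test concentrations in µM.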 Format: biochemical. The protocol: The ability of the 5-phenoxy primaquine analogs to inhibit hematin polymerization was investigated using a protocol modified from the one described previously. […] After it was left standing for 15 min, Tween 20 (0.5 μM; Sigma) was added. […] The assay was performed in triplicate, and results were expressed as the percentage of inhibition relative to hemozoin formation in a negative control. The IC50 values were obtained from the sigmoidal dose–response curves using nonlinear regression curve fitting analyses with GraphPad Prism version 3.00 software. Each IC50 value is the result of at least three separate experiments.

Setting [3] is: Vero cells (kidney fibroblasts).
[4] abbreviates: pH 5.0, mean ± SD of three independent repeats, read-out: IC50, inhibition of hemozoin-initiated hematin polymerization.
[5] abbreviates: primary data, repeat 1, read-out: IC50, heme polymerization inhibition, repeat 1.
Setting [6] is: primary data, repeat 2, read-out: IC50, heme polymerization inhibition, repeat 2.
[7] abbreviates: primary data, repeat 3, read-out: IC50, heme polymerization inhibition, repeat 3.

On to `COc1cc(NC(C)CCCN)c2ncccc2c1Oc1ccc(F)cc1` (stereo not drawn) [7f, N^4-(5-(4-Fluorophenoxy)-6-methoxyquinolin-8-yl) pentane-1,4-diamine], for which the IC50 (commonly the concentration that inhibits the measured activity by half) with P. falciparum 3D7 came out at 4.97 ± 0.4 µM; in the series with hematin polymerization (setting [4]) it was 167 ± 8.6 µM; in the series on hematin polymerization (setting [5]) it was 155 µM; with hematin polymerization (setting [6]), 171 µM; with hematin polymerization (setting [7]) it was 175 µM. For the same molecule, in series [1] (setting [3]), the CC50 (as a rule, the concentration that lowers cell viability or growth by half) at 72 h came out at 47.5 ± 3.23 µM. Further, the “SI, selectivity index = CC50 on Vero cells / IC50 in the blood stage” value in series [2] is 9.55. The “%Inh1” value in the series on hematin polymerization (conc 2, repeat 1) is 6.02%; in the series with hematin polymerization (conc 10, repeat 1), 14.36%; in the series on hematin polymerization (conc 50, repeat 1) it was 18.94%; with hematin polymerization (conc 100, repeat 1), 36.82%; in the series with hematin polymerization (conc 200, repeat 1), 67.61%; in the series with hematin polymerization (conc 400, repeat 1) it was 89.47%. In addition, the “%Inh2” value was determined as 1.81% with hematin polymerization (conc 2, repeat 2); 7.54% with hematin polymerization (conc 10, repeat 2); 24.82% in the series with hematin polymerization (conc 50, repeat 2); 32.41% in the series with hematin polymerization (conc 100, repeat 2); 72.28% in the series with hematin polymerization (conc 200, repeat 2); 91.81% in the series on hematin polymerization (conc 400, repeat 2). The “%Inh3” value in the series on hematin polymerization (conc 2, repeat 3) worked out at 11.52%; in the series with hematin polymerization (conc 10, repeat 3) it was 9.67%; in the series on hematin polymerization (conc 50, repeat 3) it was 18.18%; in the series on hematin polymerization (conc 100, repeat 3), 35.89%; in the series on hematin polymerization (conc 200, repeat 3) it was 73.29%; in the series on hematin polymerization (conc 400, repeat 3), 104.26%.

For the molecule `COc1cc(NC(C)CCCN)c2ncccc2c1Oc1ccccc1` (stereo not drawn) [7a, N^4-(6-Methoxy-5-phenoxyquinolin-8-yl)pentane-1,4-diamine], the IC50 turned out to be 3.65 ± 0.39 µM with P. falciparum 3D7; 102 ± 4.1 µM in the series on hematin polymerization (setting [4]); 105 µM with hematin polymerization (setting [5]); 96 µM with hematin polymerization (setting [6]); 104 µM in the series on hematin polymerization (setting [7]). Further, the CC50 at 72 h in series [1] (setting [3]) is 37.5 ± 5.24 µM. Moreover, in series [2], the “SI, selectivity index = CC50 on Vero cells / IC50 in the blood stage” value was 10.27. Further, the “%Inh1” value in the series on hematin polymerization (conc 2, repeat 1) worked out at 0.76%; with hematin polymerization (conc 10, repeat 1), 4.28%; in the series on hematin polymerization (conc 50, repeat 1), 19.81%; in the series on hematin polymerization (conc 100, repeat 1) it was 50.68%; in the series with hematin polymerization (conc 200, repeat 1), 89.17%; with hematin polymerization (conc 400, repeat 1) it was 101.81%. Further, the “%Inh2” value is 8.32% with hematin polymerization (conc 2, repeat 2); 12.65% in the series on hematin polymerization (conc 10, repeat 2); 31.60% with hematin polymerization (conc 50, repeat 2); 59.92% in the series with hematin polymerization (conc 100, repeat 2); 88.25% in the series on hematin polymerization (conc 200, repeat 2); 100.63% in the series with hematin polymerization (conc 400, repeat 2). For the same molecule, the “%Inh3” value in the series on hematin polymerization (conc 2, repeat 3) turned out to be 5.77%; in the series on hematin polymerization (conc 10, repeat 3) it was 9.75%; with hematin polymerization (conc 50, repeat 3) it was 24.35%; in the series with hematin polymerization (conc 100, repeat 3) it was 49.55%; with hematin polymerization (conc 200, repeat 3), 88.23%; in the series on hematin polymerization (conc 400, repeat 3), 95.73%.

For `Cc1c2ccncc2c(C)c2c1[nH]c1ccccc12` [EPT, ellipticine, reference compound], the CC50 at 72 h in series [1] was found to be 5.97 ± 0.14 µM.

As to `CCN(CC)CCCC(C)Nc1ccnc2cc(Cl)ccc12` (stereo not drawn) [CQ, chloroquine, reference compound], the “%Inh1” value is 14.98% in the series with hematin polymerization (conc 2, repeat 1); 19.21% in the series with hematin polymerization (conc 10, repeat 1); 49.80% in the series with hematin polymerization (conc 50, repeat 1); 84.80% in the series with hematin polymerization (conc 100, repeat 1); 96.36% with hematin polymerization (conc 200, repeat 1); 105.70% in the series on hematin polymerization (conc 400, repeat 1). The “%Inh2” value with hematin polymerization (conc 2, repeat 2) was 12.22%; with hematin polymerization (conc 10, repeat 2), 27.67%; in the series on hematin polymerization (conc 50, repeat 2), 36.78%; in the series on hematin polymerization (conc 100, repeat 2) it was 81.20%; in the series with hematin polymerization (conc 200, repeat 2), 72.73%; with hematin polymerization (conc 400, repeat 2) it was 94.31%. The “%Inh3” value is recorded as 11.21% in the series on hematin polymerization (conc 2, repeat 3); 27.09% in the series with hematin polymerization (conc 10, repeat 3); 59.78% in the series with hematin polymerization (conc 50, repeat 3); 70.36% with hematin polymerization (conc 100, repeat 3); 85.74% in the series with hematin polymerization (conc 200, repeat 3); 97.41% in the series with hematin polymerization (conc 400, repeat 3). Besides, the half-inhibitory concentration (IC50) in the series on hematin polymerization (setting [4]) was determined as 61.2 ± 1.3 µM; in the series with hematin polymerization (setting [5]) it was 61.3 µM; in the series with hematin polymerization (setting [6]), 59.6 µM; in the series on hematin polymerization (setting [7]), 62.8 µM.

Regarding `COc1cc(NC(C)CCCN)c2ncccc2c1Oc1ccc(Cl)cc1` (stereo not drawn) [7d, N^4-(6-Methoxy-5-(4-chlorophenoxy)quinolin-8-yl)pentane-1,4-diamine], the IC50 in the series on P. falciparum 3D7 is 8.2 ± 0.83 µM; with hematin polymerization (setting [4]), 132 ± 5.3 µM; with hematin polymerization (setting [5]) it was 135 µM; in the series with hematin polymerization (setting [6]), 125 µM; in the series with hematin polymerization (setting [7]), 137 µM. The same molecule displayed a CC50 at 72 h in series [1] (setting [3]) of 46.4 ± 5.68 µM. The “SI, selectivity index = CC50 on Vero cells / IC50 in the blood stage” value in series [2] stood at 5.66. The “%Inh1” value in the series on hematin polymerization (conc 2, repeat 1) came to 7.78%; with hematin polymerization (conc 10, repeat 1) it was 12.08%; in the series with hematin polymerization (conc 50, repeat 1), 28.15%; in the series with hematin polymerization (conc 100, repeat 1) it was 39.02%; in the series on hematin polymerization (conc 200, repeat 1) it was 81.92%; in the series on hematin polymerization (conc 400, repeat 1), 96.57%. For the same molecule, the “%Inh2” value was 6.26% with hematin polymerization (conc 2, repeat 2); 17.37% in the series with hematin polymerization (conc 10, repeat 2); 20.53% in the series on hematin polymerization (conc 50, repeat 2); 49.70% in the series on hematin polymerization (conc 100, repeat 2); 79.27% in the series with hematin polymerization (conc 200, repeat 2); 99.33% with hematin polymerization (conc 400, repeat 2). Further, the “%Inh3” value in the series on hematin polymerization (conc 2, repeat 3) was found to be 2.78%; with hematin polymerization (conc 10, repeat 3) it was 9.55%; in the series with hematin polymerization (conc 50, repeat 3), 25.95%; with hematin polymerization (conc 100, repeat 3) it was 40.32%; in the series on hematin polymerization (conc 200, repeat 3) it was 75.78%; with hematin polymerization (conc 400, repeat 3), 91.32%.

Consider `COc1cc(NC(C)CCCNCCCCOc2ccc(C3CCC4(CC3)OOC3(OO4)C4CC5CC(C4)CC3C5)cc2)c2ncccc2c1Oc1ccccc1` (stereo not drawn) [compound 12, N^1-(4-(4-((1r,3r,5r,7r)-Dispiro[adamantane-2,3′-[1,2,4,5]tetraoxane-6′,1″-cyclohexan]-4″-yl)phenoxy)butyl)-N^4-(6-methoxy-5-phenoxyquinolin-8-yl)pentane-1,4-diamine], for which the half-inhibitory concentration (IC50) in the series with P. falciparum 3D7 was 0.38 ± 0.11 µM; in the series with hematin polymerization (setting [4]), 66.9 ± 3.5 µM; in the series with hematin polymerization (setting [5]), 64.5 µM; with hematin polymerization (setting [6]) it was 64.3 µM; in the series on hematin polymerization (setting [7]), 71.8 µM. The molecule also came in with a CC50 at 72 h in series [1] (setting [3]) of 17.3 ± 0.36 µM. For the same molecule, in series [2], the “SI, selectivity index = CC50 on Vero cells / IC50 in the blood stage” value is on record as 45.61. In addition, the “%Inh1” value in the series with hematin polymerization (conc 2, repeat 1) amounted to 12.59%; with hematin polymerization (conc 10, repeat 1) it was 19.10%; with hematin polymerization (conc 50, repeat 1), 48.21%; in the series on hematin polymerization (conc 100, repeat 1), 82.20%; in the series on hematin polymerization (conc 200, repeat 1) it was 90.25%; with hematin polymerization (conc 400, repeat 1), 106.35%. The “%Inh2” value in the series with hematin polymerization (conc 2, repeat 2) was 16.51%; with hematin polymerization (conc 10, repeat 2), 21.09%; with hematin polymerization (conc 50, repeat 2), 49.80%; in the series with hematin polymerization (conc 100, repeat 2) it was 73.34%; in the series with hematin polymerization (conc 200, repeat 2), 95.79%; with hematin polymerization (conc 400, repeat 2) it was 95.69%. For the same molecule, the “%Inh3” value in the series on hematin polymerization (conc 2, repeat 3) is recorded as 8.88%; in the series on hematin polymerization (conc 10, repeat 3) it was 14.14%; with hematin polymerization (conc 50, repeat 3), 51.14%; in the series with hematin polymerization (conc 100, repeat 3), 64.09%; in the series with hematin polymerization (conc 200, repeat 3) it was 87.78%; with hematin polymerization (conc 400, repeat 3), 97.20%.
